Experimental data as given in patent EP2610242A1, “Positively charged water-soluble prodrugs of aspirin” (Techfields Biochem Co. Ltd, priority 2006, dated 2008).
≈ marks a conversion by molar mass, not a printed value. Read-outs that look alike come from different tables or passages of the source. Blank lines part the entries; values can stand above or below the molecule they belong to.

Legend:
[1] = hairless, mouse, in vivo
[2] = Acute toxicity, oral LD50; assay type: in vivo; details: rat, in vivo, rats, read-out: LD50 orally in rats
Source text: (§1) The acute toxicity of the pro-drugs were investigated.

mice [3] = test: Analgetic activity, prolongation of pain threshold of mouse tail (D'Amour-Smith Method); assay type: in vivo; details: versus 200mg/kg aspirin, Figure 3
Experimental: Analgetic activity: The prolongation time of pain the threshold of a mouse tail was determined in accordance with the D'Amour-Smith Method (J. Pharmacol. Exp. Ther., 72, 74(1941)).
(§2) • Figure 1: Cumulative amounts of acetylsalicylic acid (ASA), ethyl acetylsalicylate(E-ASA), and diethylaminoethyl acetylsalicylate.AcOH(DEAE-ASA) crossing isolated human skin tissue in Franz cells (n=5). […] In each case, the vehicle was pH 7.4 phosphate buffer (0.2 M). • Figure 2: Total plasma levels of salicylic acid (SA) after topical application of 300 mg of acetylsalicylic acid (ASA) or diethylaminoethyl acetylsalicylate.AcOH (DEAE-ASA) to the backs of hairless mice (n=5). • Figure 3. […] A is the control line. • Figure 4. […] A is the control line.

mice [4] = test: Analgetic activity, acetic acid writhing test; assay type: in vivo; details: for inhibition at 50 mg/kg / inhibition at 100 mg/kg: Mus musculus, po, read-out: % (rate of writhings inhibition)
Experimental: The number of writhings that occurred when mice were administered an acetic acid solution intraperitoneally were counted, and the rate of inhibition based on the control group was calculated. 42 mice were divided into 7 groups (6 mice each). Aspirin (ASA, 50 mg/kg and 100 g) was administered to groups B1 and B2 of mice and diethylaminoethyl acetylsalicylate.AcOH (DEAE-ASA, 50 mg and 100 mg/kg) was administered orally to groups C1 and C2. Diethylaminoethyl acetylsalicylate.AcOH (DEAE-ASA, 50 mg and 100 mg/kg) was administered transdermally to groups D1 and D2. The A group is the control group. The test compounds were administered to the mice 30 minutes before the acetic acid solution was administered.

rats [5] = test: Antipyretic activity, E. coli suspension as pyrogen, body temperature; assay type: in vivo; details: for body temperature t=0 min / body temperature t=90 min / body temperature t=180 min. / body temperature t=270 min.: in °C (unit assumed)
Experimental: Antipyretic activity: Rats received a sterilized E. coli suspension as a pyrogen. 56 rats were divided into 7 groups. The control group is group A. 2 hours later, Aspirin (ASA, B1 for 100mg/kg and B2 for 150mg/kg) and diethylaminoethyl acetylsalicylate.AcOH (DEAE-ASA, C1 for 100mg/kg and C2 for 150 mg) were administered orally and diethylaminoethyl acetylsalicylate.AcOH (DEAE-ASA, D1 for 100 mg and D2 for 150 mg/kg) were administered transdermally. The body temperature of rats was taken at 90 min. intervals before and after the administration of the test compounds.

rats [6] = test: Anti-inflammatory activity, carrageenin hind paw swelling; assay type: in vivo; details: 50mg/kg, oral administration and transdermal administration, Figure 4
Experimental: Anti-inflammatory activity: 50 mg/kg of diethylaminoethyl acetylsalicylate.AcOH was administered orally or transdermally to rats and 50 mg/kg of aspirin was administered orally. 60 minutes later, a carrageenin solution was administered subcutaneously to the foot pads of the rats. The volume of the hind paw was measured at every hour after the administration of the carrageenin, and the rate of increase in the volume of the paw was calculated and designated as the rate of swelling(%).
as §2

[7] = Half-life in whole human blood
Source text: (§3) To determine how much the pro-drugs of acetylsalicylic acid were changed back to the drug itself or diethylaminoethyl salicylate, we diluted whole human blood 20 times with a pH 7.4 phosphate buffer (0.2M).

[8] = Solubility in pH 7 phosphate buffer; details: pH 7, aqueous buffer
[9] = Solubility in water of the prepared product
rats [10] = test: Gastroduodenal bleeding (fecal blood) after 21 days of oral dosing; details: 100 mg/kg per day orally for 21 days
[11] = In vitro penetration through human skin, modified Franz cells, HPLC
[12] = Conversion of pro-drug in whole human blood diluted 20 times with pH 7.4 phosphate buffer, HPLC; details: whole human blood diluted 20 times with pH 7.4 phosphate buffer (0.2M)
Source text: as §3

[13] = In vivo penetration through the skin of intact hairless mice, plasma levels of salicylic acid by HPLC
[14] = human, 20 % (suspension in the donor), pH 7.4
rats [15] = details: rat, in vivo, po, 100 mg/kg/day, 21 days
[16] = cited from earlier work
physchem [17] = details: pH 7, aqueous buffer
rats [18] = test: Acute toxicity, oral LD50; assay type: in vivo; details: unit printed as g
Source text: as §1

physchem [19] = test: physchem
[20] = 50 mg/kg transdermally, group D1
[21] = 50 mg/kg, groups B1 (ASA) and C1 (DEAE-ASA orally), 30 minutes before acetic acid
[22] = 100 mg/kg transdermally, group D2
[23] = 100 mg/kg, groups B2 (ASA) and C2 (DEAE-ASA orally), 30 minutes before acetic acid
[24] = 50 mg/kg, groups B1 (ASA) and C1 (DEAE-ASA orally)
[25] = 100 mg/kg, groups B2 (ASA) and C2 (DEAE-ASA orally)

Molecule: CCN(CC)CCOC(=O)c1ccccc1OC(C)=O [diethylaminoethyl acetylsalicylate.AcOH]
LD50 [2]: 2300 mg/kg
analgetic activity (prolongation time of pain threshold) (mice [3]; 200 mg/kg orally (C)): stronger analgetic activity
analgetic activity (prolongation time of pain threshold) (mice [3]; 200 mg/kg transdermally (D)): stronger analgetic activity
% (rate of writhings inhibition) (mice [4]; [20]): 56%
No. of Writhings (mice [4]; [20]): 14.5
No. of Writhings (mice [4]; [21]): 15.4
% (rate of writhings inhibition) (mice [4]; [22]): 70%
No. of Writhings (mice [4]; [22]): 10.1
No. of Writhings (mice [4]; [23]): 11
inhibition at 50 mg/kg (mice [4]; [24]): 54%
inhibition at 100 mg/kg (mice [4]; [25]): 67%
analgetic activity compared with aspirin (mice [4]; writhing test, summary of Table 1): better analgetic activity than aspirin
antipyretic activity compared with aspirin (rats [5]; 100 mg/kg dose, summary of Table 2): some better than aspirin
body temperature t=0 min (rats [5]; 100mg/kg orally): 37.25±0.09
body temperature t=90 min (rats [5]; 100mg/kg orally): 36.40±0.15
body temperature t=180 min. (rats [5]; 100mg/kg orally): 36.50±0.09
body temperature t=270 min. (rats [5]; 100mg/kg orally): 36.40±0.15
body temperature t=0 min (rats [5]; 100mg/kg transdermally): 37.19±0.07
body temperature t=90 min (rats [5]; 100mg/kg transdermally): 36.40±0.05
body temperature t=180 min. (rats [5]; 100mg/kg transdermally): 36.38±0.05
body temperature t=270 min. (rats [5]; 100mg/kg transdermally): 36.40±0.15
body temperature t=0 min (rats [5]; 150mg/kg orally): 37.18±0.07
body temperature t=90 min (rats [5]; 150mg/kg orally): 36.30±0.15
body temperature t=180 min. (rats [5]; 150mg/kg orally): 36.28±0.07
body temperature t=270 min. (rats [5]; 150mg/kg orally): 36.20±0.09
body temperature t=0 min (rats [5]; 150mg/kg transdermally): 37.33±0.05
body temperature t=90 min (rats [5]; 150mg/kg transdermally): 36.27±0.15
body temperature t=180 min. (rats [5]; 150mg/kg transdermally): 36.26±0.07
body temperature t=270 min. (rats [5]; 150mg/kg transdermally): 36.22±0.08
antipyretic activity, transdermal versus oral administration (rats [5]; summary of Table 2): better than oral administration
Anti-inflammatory activity (rate of swelling) compared with aspirin (rats [6]): better Anti-inflammatory activity than that of aspirin
half-life ([7]; blood): ~4 min
solubility [8]: > 300 mg/mL
solubility [9]: 300 mg/mL (≈ 1070 mM)
average fecal blood (rats [10]): none
Apparent flux values ([11]; isolated human skin, Franz cells, donor 20% suspension or 20% solution in pH 7.4 phosphate buffer (0.2M)): 100 mg/cm^2/h
diffuses through human skin times faster than acetylsalicylic acid itself ([11]; ratio versus acetylsalicylic acid): ~400 times
diffuses through human skin times faster than ethyl acetylsalicylate ([11]; ratio versus ethyl acetylsalicylate): ~100 times
pro-drug changed back to the drug itself [12]: 80%
difference of peak plasma levels ([13]; pro-drug donor versus acetylsalicylic acid donor): approximately 100 times
peak plasma level of salicylic acid ([13]; topical, 30% in 1 mL isopropanol on 1 cm^2 of the back, hairless mice): ~10 mg/mL
peak plasma level times higher than the salicylate plasma level for effective analgesia ([13]; versus 0.15-0.3 mg/ml): 33-67 times
peak plasma level times higher than the salicylate plasma level for effective anti-inflammatory activity ([13]; versus 0.2-0.3 mg/ml): 33-50 times

Molecule: S-diethylaminoethyl propionylthiosalicylate.AcOH
Solubility in water [9]: 280 mg/mL

Molecule: CC(=O)Oc1ccccc1C(=O)OCCN(C)C [dimethylaminoethyl acetylsalicylate.AcOH]
LD50 orally in rats (rats [18]): 2.2 g
solubility (physchem [19]): 350 mg/mL (≈ 1390 mM)

Molecule: CC(=O)Oc1ccccc1C(=O)NCCN(C)C [N-dimethylaminoethyl acetylsalicylamide.AcOH]
solubility [9]: 350 mg/mL (≈ 1400 mM)

Molecule: CCN(CC)CCCNC(=O)c1ccccc1OC(C)=O [N-diethylaminopropyl acetylsalicylamide.AcOH]
solubility [9]: 280 mg/mL (≈ 958 mM)

Continued, in another order:

peak plasma level of salicylic acid [1]: ~0.01 mg/mL
Molecule: O=C(O)c1ccccc1O [salicylic acid]

Apparent flux values [14]: 0.25 mg/cm^2/h
time to peak levels of salicylic acid in plasma after application of the donor systems [1]: ~20 min
average fecal blood (rats [15]): 5 mg of fecal blood per gram of feces
solubility (physchem [17]): 0.01 mg/mL (≈ 0.0555 mM)
half-life [7]: 15 min
Molecule: CC(=O)Oc1ccccc1C(=O)O [acetylsalicylic acid, reference compound]
No. of Writhings (mice [4]; [21]): 18.2
No. of Writhings (mice [4]; [23]): 13.2
inhibition at 50 mg/kg (mice [4]; [24]): 45%
inhibition at 100 mg/kg (mice [4]; [25]): 60%
body temperature t=0 min (rats [5]; 100mg/kg orally): 37.22±0.05
body temperature t=90 min (rats [5]; 100mg/kg orally): 36.80±0.05
body temperature t=180 min. (rats [5]; 100mg/kg orally): 36.85±0.05
body temperature t=270 min. (rats [5]; 100mg/kg orally): 36.81±0.05
body temperature t=0 min (rats [5]; 150mg/kg orally): 37.30±0.06
body temperature t=90 min (rats [5]; 150mg/kg orally): 36.50±0.05
body temperature t=180 min. (rats [5]; 150mg/kg orally): 36.59±0.05
body temperature t=270 min. (rats [5]; 150mg/kg orally): 36.55±0.05
half live in plasma [16]: ~15 min

Apparent flux values [14]: 1 mg/cm^2/h
penetration rate difference between ethyl acetylsalicylate and acetylsalicylic acid [14]: 4 times
Molecule: CCOC(=O)c1ccccc1OC(C)=O [ethyl acetylsalicylate]

solubility [9]: 300 mg/mL (≈ 976 mM)
Molecule: CCCN(CCC)CCOC(=O)c1ccccc1OC(C)=O [dipropylaminoethyl acetylsalicylate.AcOH]

solubility [9]: 320 mg/mL (≈ 1200 mM)
Molecule: CC(=O)Oc1ccccc1C(=O)SCCN(C)C [S-dimethylaminoethyl acetylthiosalicylate.AcOH]
